Data reported in patent publication US8518978B2, “Pharmaceutical composition for prevention and treatment of restenosis comprising isoxazole derivatives” (SK Biopharmaceuticals Co., Ltd., priority 2007, dated 2013).

Columns and labels:
[1] = test system: Wnt/β-catenin signal transduction (β-catenin activity) in HEK293 cell line; experiment: Cell based Wnt agonist screening system (Tcf/Lef firefly luciferase reporter) in HEK293 cell line; set-up: species or system human
Text: (§1) Two kinds of human cancer cell lines HEK293 and SW480 were used to determine the ex vivo activity of the compounds according to one exemplary embodiment of the present invention.
(§2) In order to determine the activity of the wnt/β-catenin signal transduction in each cancer cell line, the present inventors introduced a gene as shown in FIG. 1 into cells, the gene having binding sites (5× TCFs) of Tcf/Lef transcription regulation protein to which β-catenin binds and having a firefly fluorescent protein (firefly luciferase) as a marker that can determine the activity of the Tcf/Lef transcription regulation protein. Then, the present inventors constructed a cell based Wnt agonist screening system by treating the gene-introduced cells with G418 to obtain a single clone of a cell line whose Tcf/Lef transcription regulation protein is continuously expressed due to the introduction of the gene. […]
(§3) When the prepared cell line was treated with lithium chloride (LiCl) that is a positive control in the cell based Wnt agonist screening system as the control for determining the Wnt agonist activity of the isoxazole derivative according to one exemplary embodiment of the present invention, an expression level of the fluorescent protein was measured, and plotted in a graph as shown in FIG. 3. […]

[2] = test system: Wnt/β-catenin signal transduction (β-catenin activity) in SW480 cell line; experiment: Cell based Wnt agonist screening system (Tcf/Lef firefly luciferase reporter) in SW480 cell line; set-up: species or system human; settings: Conc. 20000 μM, control that defines 100%
Text: as §1, §2, §3

Structure (SMILES)	Relative Max. Activity (%) ([1]; Conc. 20000 μM, control that defines 100%)	Relative Max. Activity (%) [2]	Emax at 120 µM ([1]; Homo sapiens, Conc. 120 μM, 24-hour treatment, relative to LiCl 20 mM = 100%, read-out: Relative Max. Activity (%))
[Cl-].[Li+] [LiCl, lithium chloride, reference compound]	100%	100%	
Nc1ccc(-c2cc(C(=O)NCCCn3ccnc3)no2)cc1 [Derivative 48, 5-(4-amino-phenyl)-isoxazole-3-carboxylic acid (3-imidazol-1-yl-propyl)-amide]			246%
